The record followed here is publication PMC8333620, “Novel Tl(III) complexes containing pyridine-2,6-dicarboxylate derivatives with selective anticancer activity through inducing mitochondria-mediated apoptosis in A375 cells” (Scientific Reports, 2021).

The test system of series [1] is HFF (a human foreskin fibroblast) cell line. The series can be described thus: MTT cytotoxicity assay, HFF. The class given is cell-based. The following applies: MTT, 48 h; read-out: Cytotoxicity (IC50 ± SEM) against HFF. As for the experimental part:
(§1) In this study, A375 (a human melanoma), HT29 (a human colon adenocarcinoma), and HFF (a human foreskin fibroblast) cell lines were provided from the Pasteur Institute (Iran). […] 10 mM stock solutions of compounds were prepared in DMSO and diluted in a fresh medium for use. The final concentration of DMSO never exceeded 0.1% (v/v). […] Then the medium was replaced with the respective medium containing ligands or Tl(III) complexes at different concentrations and incubated for 48 h. 10 μL of MTT was added and the medium was removed after 4 h of incubation. Finally, the violet crystal was solubilized in 100 μL DMSO and the absorbance was measured at 570 nm. IC50 value was measured by the standard method. The evaluations were carried out in triplicate[21],[23].

For series [2], the system named is A375 cells. The series can be described thus: Intracellular ROS (H2DCF-DA, flow cytometry), A375. The class given is cell-based, human. To be noted: A375, IC50 concentrations, 24 h. The procedure: The generation of intracellular ROS was evaluated by reactive oxygen species assay kit. 2 mL of A375 cells (1 × 10^6 cells/mL) were induced with C1–C3 (at IC50 concentrations) at 37 °C for 24 h, serum-free medium washed twice. Then, the cells were incubated in 2 mL of serum-free medium containing H2DCF-DA (2 μM) for 30 min at 37 °C, serum-free medium washed twice. Cells were collected and assayed by flow cytometer with excitation wavelength at 489 nm and emission wavelength at 524 nm, and ten thousand events were collected. The DCF fluorescence peak for this cell sample was evaluated and data were analyzed by FlowJo software. This test was performed as explained on HFF cells treatment to C3 (at the highest concentration)[38].
For orientation: Flow cytometry measures light scatter and fluorescence of single cells or particles in a stream.

Series [3] concerns HT29 (a human colon adenocarcinoma) cell line. The series can be described thus: MTT cytotoxicity assay, HT29. The class given is cell-based. The following applies: read-out: Cytotoxicity (IC50 ± SEM) against HT29. As for the experimental part: as §1
(In general: Formazan colour is commonly taken as a measure of viable cells.)

Series [4] in a line: Cyclic voltammetry of the complexes. The format is physicochemical. To be noted: versus Ag/AgCl, KCl 0.1 M, GCE, scan rate 50 V/s; for formal potential E0': 4 × 10^–3 mol/dm^3 in H2O; for EA (anodic peak potential) / EC (cathodic peak potential): H2O. The text has this: The electrochemical behavior of the complexes and also their ligands was studied by the cyclic voltammograms in the potential range of + 1.5 to –1.5 V and a scan rate of 50 Vs^–1. […] Redox couples at E^0ˊ 0.109, –0.051, and 0.244 V were obtained for C1, C2, and C3, respectively. The electrochemical oxidation of all three complexes seems be a one-stage process which includes irreversible couples with EC = –0.363 V, EA = 0.472 V for C1, EC = –0.271 V, EA = 0.220 V for C2 and EC = –0.337 V, EA = 0.581 V for C3. The peaks can be interpreted according to the Tl(III)/Tl(I) redox system for complexes. […] Therefore, redox couples are related to only the metal centers in complexes[27],[28].
Figure 4 Cyclic voltammogram of complexes c = 4 × 10^–3 mol/dm^3 in H2O medium, KCl (0.1 M) at GCE, scan rate 50 V/s.
Pyridine-2,6-dicarboxylic acid, 4-hydroxy-pyridine-2,6-dicarboxylic acid, 2-aminobenzimidazole, 4-aminopyridine, and thallium(III) nitrate trihydrate were purchased from the commercial sources and were used as received. The solvents were distilled for all synthetic works. Melting points were obtained on an Electrothermal IA-9100 apparatus. The FT-IR spectra were recorded on a Bruker Vector 22 FT-IR spectrometer using KBr pellets. Electronic spectra were recorded on Specord 210, Analytik Jena spectrophotometer in the range of 200–900 nm at room temperature. The ^1HNMR spectra were obtained from Bruker Ultrashield 400 spectrometer. Microanalyses (C, H, N) were measured with a Perkin-Elmer 2004(II) elemental analyzer. Electrochemical experiments were performed using a µAUTOLAB modular electrochemical system (ECO Chemie, Utrecht, the Netherlands) equipped with a PGSTAT type III module driven by GPES software in conjunction with a conventional three-electrode system an Ag/AgCl/3 M KCl and platinum wire as reference and counter electrode respectively and a GC as the working electrode.

Series [5] relates to A375 (a human melanoma) cell line. Briefly: MTT cytotoxicity assay, A375. The following applies: for Viability inhibition, A375: concentration not given; for IC50: read-out: Cytotoxicity (IC50 ± SEM) against A375. The format is cell-based. As for the experimental part:
as §1

Series [6] is described as follows: MTT cytotoxicity assay, HFF. The format is cell-based, human. To be noted: human. The procedure:
as §1

Series [7] has as its system Bax/Bcl-2. The series can be described thus: Western blot, Bax/Bcl-2 ratio in A375 cells. The following applies: A375, IC50 concentrations, 24 h. The format is cell-based, human. The procedure: (§2) After incubation with C1 and C3 at IC50 concentrations for 24 h, A375 cells were harvested and lysed in 150 μL of lysis buffer (149 μL RIPA and 1 μL PMSF), and then placed on ice for 15 min. Total proteins were extracted by centrifuging the cell sample at 10,000 rpm and 4 °C for 10 min. Then about 50 μg of purified proteins were mixed with an equal volume of electrophoresis sample buffer, and the mixture was heated for 10 min. Meanwhile, the equal protein content from the control cells was prepared in the same way. The cell sample (10 μL) was loaded onto 10% SDS-PAGE gels and then transferred onto a microporous polyvinylidene difluoride (PVDF) membrane. The membrane was blocked with 5% BSA in TBST buffer for more than 2 h. After the removal of TBST buffer, membranes were incubated with an appropriate dilution of specific primary antibodies in TBST overnight at 4 °C and then washed with TBST three times. The membranes were incubated with secondary antibodies for 1 h and washed with TBST. The immunoreactive signals were detected using an enhanced chemo-luminance kit (Pierce ECL Western Blotting Substrate) following the procedures given in the user manual[46],[63].
On the technique in general: In western blotting, separated proteins are transferred to a membrane and probed.

Series [8] relates to A375 cells. The series can be described thus: Mitochondrial membrane potential assay (JC-1), A375. The format is cell-based, human. The following applies: A375, IC50 concentrations, JC-1, 24 h. As for the experimental part: Mitochondrial membrane potential analysis was determined by fluorescent dye JC-1 staining according to the manufacturer's protocol for the JC-1 assay kit. In brief, 2 mL of A375 cells (1 × 10^5 cells/mL) were treated with IC50 concentrations of C1 and C3 in 6-well plates for […]. Cells were harvested and washed three times with PBS after 24 h of incubation. Then cells were stained with 1 mL of JC-1 stock solution (10 mg/mL). Assays were initiated by incubating A375 cells with JC-1 for 30 min at 37 °C in the dark and detected with a fluorescence microscope. This test was performed as explained on HFF cells treatment to C3 (at the highest concentration).

Series [9] concerns A375 cells. Briefly: Apoptosis by Annexin-V/PI staining. The format is cell-based, human. The following applies: A375, IC50 concentrations, 24 h. The procedure:
Annexin V-FITC and PI staining (Annexin V/PI) apoptosis detection kit were used for assessing the percentage of dead cells by apoptosis pathway. Briefly, A375 cells were treated with C1 and C3 at IC50 concentrations. After 24 h of incubation, cells were washed with PBS, trypsinized, centrifuged, and re-suspended in 100 μL binding buffer at a concentration of 1 × 10^6 cells/mL, then added 5 μL of annexin V-FITC conjugate (30 min), and 5 μL of Propidium Iodide (PI) to each cell suspension (20 min) in the dark. The samples were analyzed using a flow cytometer (Attune Nxt, Thermo Fisher Scientific-US), and the results were assessed using the FlowJo software.

Series [10] has as its system A375 cells. Briefly: Cell cycle analysis (PI, flow cytometry), A375. To be noted: A375, IC50 concentrations, 24 h; with respect to untreated control cells. The format is cell-based, human. The procedure:
A375 cells were seeded in 6-well plates with 1.5 × 10^6 cells /well and treated with the C1 and C3 at IC50 concentrations for 24 h. Cells were trypsinized, collected, and fixed in ice-cold 75% ethanol at − 20 °C overnight. After centrifugation, the fixed cells were rinsed with ice-cold phosphate-buffered saline (PBS) and resuspended in 0.5 mL of PBS containing 100 μg/mL DNase-free RNase A (Thermo Fisher Scientific Biosciences GmbH, St. Leon-Rot, Germany), 50 μg/mL propidium iodide (PI; Sigma Aldrich) in the dark for 30 min. The distribution of the cells in different phases of the cell cycle was determined using flow cytometry (Attune Nxt, Thermo Fisher Scientific-US) and FlowJo software v10.6.1 (https://www.flowjo.com/solutions/flowjo/downloads) was used to analyze the data. This test was performed as explained on HFF cells treatment to C3 (at the highest concentration)[62].

In series [11] the test system is procaspase-9. Briefly: Western blot, procaspase-9 in A375 cells. To be noted: A375, IC50 concentrations, 24 h, densitometry. The format is cell-based, human. The procedure:
as §2

Series [12] concerns p53. Briefly: Western blot, p53 in A375 cells. The format is cell-based, human. To be noted: A375, IC50 concentrations, 24 h. The procedure:
as §2

Where [13] appears, read: MTT, 48 h, read-out: Cytotoxicity (IC50 ± SEM) against HFF.

Read-outs that look alike come from different tables or passages of the source. Some results are limits rather than exact numbers.

Regarding (2-abH)[Tl(hpydc)2(H2O)2]∙6H2O [C2], the IC50 (usually the concentration that gives 50% inhibition) in series [1] is greater than 500 µM. For the same compound, the “ROS level (DCF oxidation), more effective than vehicle control-treated” value in [2] is on record as 23.5%. Also, in [3] (MTT, 48 h), the IC50 turned out to be 486.2 ± 0.69 µM. Moreover, in series [4], the “formal potential E0'” value was “–0.051 V”, the “EA (anodic peak potential)” value came out at 0.220 V and the “EC (cathodic peak potential)” value is recorded as “–0.271 V”. In series [5] (MTT, 48 h), the “Viability inhibition, A375” value was 35.28% and the half-inhibitory concentration (IC50) came out at 421.1 ± 0.55 µM.

For `O=C(O)c1cc(O)cc(C(=O)O)n1` [hpydcH2, 4-hydroxy-pyridine-2,6-dicarboxylic acid], the IC50 in [6] (setting [13]) is greater than 500 µM; in series [3] (Homo sapiens, HT-29, MTT, 48 h), greater than 500 µM; in series [5] (Homo sapiens, A-375, MTT, 48 h), greater than 500 µM.

`Nc1nc2ccccc2[nH]1` [2-ab, 2-aminobenzimidazole] yielded a half-inhibitory concentration (IC50) at 48 h in series [6] greater than 500 µM. The IC50 in [3] (Homo sapiens, HT-29, 48 h) is greater than 500 µM; in [5] (Homo sapiens, A-375, 48 h), greater than 500 µM.

For the compound (2-abH)2[Tl(pydc)2(H2O)2]2∙11H2O [C1], in [1], the 50% inhibitory concentration (IC50) is greater than 500 µM. Moreover, the “ROS level (DCF oxidation), more effective than vehicle control-treated” value in series [2] stood at 189.9%. Also, in series [3] (MTT, 48 h), the IC50 worked out at 354.4 ± 0.71 µM. Also, in series [7], the “ratio of Bax/Bcl-2” value amounted to 3.60 fold. The “mitochondrial membrane potential (MMP) in A375 cells” value in [8] was “MMP reduction”. Moreover, in series [4], the “formal potential E0'” value is on record as 0.109 V, the “EA (anodic peak potential)” value is 0.472 V and the “EC (cathodic peak potential)” value is listed as “–0.363 V”. In [9], the “apoptosis, more effective than vehicle control-treated” value is reported as 62.24%; the “early apoptosis (annexin V+/PI-, Q3)” value was determined as 14.22%; the “late apoptosis (annexin V+/PI+, Q2)” value is reported as 48.01%. Further, in series [10], the “rise in the cellular population of the G2-M phase” value is recorded as 16.91%. In addition, in series [11], the “procaspase-9 level compared to control” value came to 64.12%. Besides, in series [5] (MTT, 48 h), the “Viability inhibition, A375” value was 55.44% and the half-maximal inhibitory concentration (IC50) was determined as 81.5 ± 1.02 µM. The “level of p53” value in series [12] was “significantly enhanced”.

On to `O=C1[O][Pt]2([NH][C@@H]3CCCC[C@H]3[NH]2)[O]C1=O` [Oxaliplatin, reference compound], for which the 50% inhibitory concentration (IC50) in [1] was determined as 429.2 ± 2.32 µM; in [3] (MTT, 48 h), 323.1 ± 2.87 µM; in [5] (MTT, 48 h), 331 ± 2.69 µM.

As for `O=C(O)c1cccc(C(=O)O)n1` [pydcH2, 2,6-Pyridinedicarboxylic acid], the IC50 at 48 h in series [6] (setting [13]) is greater than 500 µM. The 50% inhibitory concentration (IC50) in series [3] (Homo sapiens, HT-29, 48 h) was determined as 430.2 ± 2.09 µM; in series [5] (Homo sapiens, A-375, 48 h), 442.6 ± 1.22 µM.

As to `Nc1ccncc1` [4-apy, 4-aminopyridine], the IC50 in series [6] (setting [13]) was greater than 500 µM; in series [3] (Homo sapiens, HT-29, MTT, 48 h), greater than 500 µM; in series [5] (Homo sapiens, A-375, MTT, 48 h) it was 491.9 ± 1.56 µM.
